Where no end group is shown, it is not given here. [ ]: non-standard residue; d: D form. Cit = NC(=O)NCCC[C@H](N)C(=O)O
System: TCR specific for the citrullinated fibrinogen peptide
Experiment: activation of 58−/− T cell line expressing cit-fib specific TCR by peptide-loaded HLA-DRB1*04:01 monomers (NFAT-GFP reporter, PD1 expression)
Assay type: cell-based, human
Settings: peptide presented on HLA-DRB1*04:01, 48 h; for TCR-dependent NFAT mediated activation of T cells: GFP reporter, FIG. 3; for TCR-dependent PD1 expression: anti-mouse PD-1 staining, FIG. 4
Procedure: 58−/− cell line expressing cit-fib specific TCRs in ametrine expressing vector, along with co-expression of human CD4 and GFP as a reporter for NFAT expression.
HLA-DRB1*04:01 monomeric protein (500 μg/mL) was incubated for 72 h at 37° C. with different versions of fib69-81 peptide (test) and VimX71 peptide (control) in sodium phosphate buffer (1×) containing n-octyl β-D-Glucopyranoside (Sigma-Aldrich, USA) and Pefabloc SC (Sigma-Aldrich, USA), and then stored at 4° C. until used. Loaded HLA monomers were subsequently coated (0.03-2 μg/well) onto 48-well plates in 100 μl PBS for 4 h at 37° C. The HLA/peptide solution was subsequently flicked of the plate and specific T cells (5×104) and anti-CD28 (1 μg/well) were added to the monomer-coated wells and incubated for 48 h at 37° C. before collecting cells.
As positive controls, anti-mouse anti-CD3 (BioLegend #100314), anti-CD28 (BioLegend #101112) were used.
PD1 expression on 58−/− cells was assessed using anti-mouse PD-1 PE-Cy7 antibody, while NFAT activation was studied using assessment of GFP expression following cell stimulation. Human CD4+ametrine+ viable singlets were used as population to look for expression of NFAT and PD1.

Sequence | TCR-dependent NFAT mediated activation of T cells | TCR-dependent PD1 expression
GGYRAQPAKAAAT [FibQ74, fibrinogen 69-81 mimic, a glutamine in position 74] | equally capable of triggering T cell activation as the original citrullinated peptide | equally capable of triggering T cell activation as the original citrullinated peptide
GGFRAXPAKAAAT (GGFRA[Cit]PAKAAAT; ends and bridges not checked) [FibF71X74] | equally capable of triggering T cell activation as the original citrullinated peptide | equally capable of triggering T cell activation as the original citrullinated peptide
GGFRAQPAKAAAT [FibF71Q74, fibrinogen 69-81 mimic, glutamine in position 74 and phenylalanine in position 71] | equally capable of triggering T cell activation as the original citrullinated peptide | equally capable of triggering T cell activation as the original citrullinated peptide

— US20250340616A1, “NOVEL PEPTIDE MIMICS AND THEIR USE” (STIFTELSEN VECTIS, priority 2021, published 2025)
